Results as given in patent US20040249124A1 (priority 2001, published 2004).

Test system: antibody MBS-3 binding to p17
Assay: Competitive ELISA: displacement of MBS-3 binding to p17 absorbed in solid phase

“NH2-Ser-Gly-Gly-Glu-Leu-Asp-Arg-Trp-Glu-Lys-Ile-Arg-Leu-Arg-COOH (H-SGGELDRWEKIRLR-OH) [SEQ ID NO: 2]” was tested, and the “displacing the binding of the antibody MBS-3 to p17” value was “efficacious in displacing”.
